Measured values: the supplement of paper PMC10307832

Tests used:
Assay in all cases: relative viability (nuclei count vs DMSO), 5 days (fraction); higher = more cells survive
[1] = system: COR-L 105
Procedure, shortened: (§1)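 Values are medians from duplicate plates. Each reflects relative viability, defined as the nuclei count of treated wells over that of vehicle wells. Lung cancer cell lines in 1536-well plates were pin-tool dosed one day after seeding with one drug alone or with a fixed anchor-drug dose plus five library-drug doses (not always all listed) in √10 steps, then fixed, stained and imaged at 4× after 5 days.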

[2] = system: NCI-H1395
Procedure, shortened: as §1

[3] = system: EMC-BAC-2
Procedure, shortened: as §1

[4] = system: H3255
Procedure, shortened: as §1

[5] = system: NCI-H2126
Procedure, shortened: as §1

[6] = system: NCI-H2087
Procedure, shortened: as §1

[7] = system: HOP-62
Procedure, shortened: as §1

[8] = system: LOU-NH91
Procedure, shortened: as §1

[9] = system: UMC-11
Procedure, shortened: as §1

[10] = system: 201T
Procedure, shortened: as §1

[11] = system: SK-MES-1
Procedure, shortened: as §1

[12] = system: SW 900
Procedure, shortened: as §1

[13] = system: BEN
Procedure, shortened: as §1

[14] = system: NCI-H2170
Procedure, shortened: as §1

[15] = system: HCC-78
Procedure, shortened: as §1

[16] = system: LXF-289
Procedure, shortened: as §1

[17] = system: HARA
Procedure, shortened: as §1

[18] = system: RERF-LC-KJ
Procedure, shortened: as §1

[19] = system: LC-2-ad
Procedure, shortened: as §1

[20] = system: NCI-H650
Procedure, shortened: as §1

[21] = system: LU99A
Procedure, shortened: as §1

[22] = system: NCI-H1993
Procedure, shortened: as §1

CCNC(=O)c1noc(-c2cc(C(C)C)c(O)cc2O)c1-c1ccc(CN2CCOCC2)cc1 [Luminespib] + Cc1cc(Nc2cc(N3CCN(C)CC3)nc(Sc3ccc(NC(=O)C4CC4)cc3)n2)n[nH]1 [Tozasertib] (partner 0.1 µM) showed a relative viability ([1]; first compound 0.002 µM) of 0.37, a relative viability ([1]; first compound 0.006325 µM) of 0.385 and a relative viability ([1]; first compound 0.02 µM) of 0.232. It also gave a relative viability ([1]; first compound 0.06325 µM) of 0.465, a relative viability ([1]; first compound 0.2 µM) of 0.191 and a relative viability ([2]; first compound 0.002 µM) of 0.783. The relative viability ([2]; first compound 0.006325 µM) was 0.693, the relative viability ([2]; first compound 0.02 µM) was 0.676 and the relative viability ([2]; first compound 0.06325 µM) was 0.386. The relative viability ([2]; first compound 0.2 µM) was 0.322, the relative viability ([3]; first compound 0.002 µM) was 0.345 and the relative viability ([3]; first compound 0.006325 µM) was 0.261. It also gave a relative viability ([3]; first compound 0.02 µM) of 0.28, a relative viability ([3]; first compound 0.06325 µM) of 0.342 and a relative viability ([3]; first compound 0.2 µM) of 0.299. For the same compound, the relative viability ([4]; first compound 0.002 µM) was 0.7, the relative viability ([4]; first compound 0.006325 µM) was 0.69 and the relative viability ([4]; first compound 0.06325 µM) was 0.7. The relative viability ([4]; first compound 0.2 µM) was 0.25, the relative viability ([5]; first compound 0.002 µM) was 0.844 and the relative viability ([5]; first compound 0.006325 µM) was 0.879. For the same compound, the relative viability ([5]; first compound 0.02 µM) was 0.661, the relative viability ([5]; first compound 0.06325 µM) was 0.5 and the relative viability ([5]; first compound 0.2 µM) was 0.264. For the same compound, the relative viability ([6]; first compound 0.002 µM) was 0.26, the relative viability ([6]; first compound 0.006325 µM) was 0.29 and the relative viability ([6]; first compound 0.02 µM) was 0.243. For the same compound, the relative viability ([6]; first compound 0.06325 µM) was 0.113, the relative viability ([6]; first compound 0.2 µM) was 0.0985 and the relative viability ([7]; first compound 0.002 µM) was 0.363. The relative viability ([7]; first compound 0.006325 µM) was 0.352, the relative viability ([7]; first compound 0.02 µM) was 0.403 and the relative viability ([7]; first compound 0.06325 µM) was 0.389. The relative viability ([7]; first compound 0.2 µM) was 0.232, the relative viability ([8]; first compound 0.002 µM) was 0.685 and the relative viability ([8]; first compound 0.006325 µM) was 0.664. It also gave a relative viability ([8]; first compound 0.02 µM) of 0.428, a relative viability ([8]; first compound 0.06325 µM) of 0.265 and a relative viability ([8]; first compound 0.2 µM) of 0.282. For the same compound, the relative viability ([9]; first compound 0.002 µM) was 0.211, the relative viability ([9]; first compound 0.006325 µM) was 0.191 and the relative viability ([9]; first compound 0.02 µM) was 0.194. For the same compound, the relative viability ([9]; first compound 0.06325 µM) was 0.242, the relative viability ([9]; first compound 0.2 µM) was 0.196 and the relative viability ([10]; first compound 0.002 µM) was 0.988. It also gave a relative viability ([10]; first compound 0.006325 µM) of 0.907, a relative viability ([10]; first compound 0.02 µM) of 0.665 and a relative viability ([10]; first compound 0.06325 µM) of 0.89. It also gave a relative viability ([10]; first compound 0.2 µM) of 0.849, a relative viability ([11]; first compound 0.002 µM) of 0.822 and a relative viability ([11]; first compound 0.006325 µM) of 0.849. The relative viability ([11]; first compound 0.02 µM) was 1.01, the relative viability ([11]; first compound 0.06325 µM) was 0.144 and the relative viability ([11]; first compound 0.2 µM) was 0.159. The relative viability ([12]; first compound 0.002 µM) was 0.638, the relative viability ([12]; first compound 0.006325 µM) was 0.623 and the relative viability ([12]; first compound 0.02 µM) was 0.591. The relative viability ([12]; first compound 0.06325 µM) was 0.15, the relative viability ([12]; first compound 0.2 µM) was 0.117 and the relative viability ([13]; first compound 0.002 µM) was 0.554. For the same compound, the relative viability ([13]; first compound 0.006325 µM) was 0.458, the relative viability ([13]; first compound 0.02 µM) was 0.475 and the relative viability ([13]; first compound 0.06325 µM) was 0.37. It also gave a relative viability ([13]; first compound 0.2 µM) of 0.383, a relative viability ([14]; first compound 0.002 µM) of 0.72 and a relative viability ([14]; first compound 0.006325 µM) of 0.737. The relative viability ([14]; first compound 0.02 µM) was 0.398, the relative viability ([14]; first compound 0.06325 µM) was 0.299 and the relative viability ([14]; first compound 0.2 µM) was 0.158. For the same compound, the relative viability ([15]; first compound 0.002 µM) was 0.399, the relative viability ([15]; first compound 0.006325 µM) was 0.273 and the relative viability ([15]; first compound 0.06325 µM) was 0.467. It also gave a relative viability ([15]; first compound 0.2 µM) of 0.303, a relative viability ([16]; first compound 0.002 µM) of 0.225 and a relative viability ([16]; first compound 0.006325 µM) of 0.216. It also gave a relative viability ([16]; first compound 0.02 µM) of 0.222, a relative viability ([16]; first compound 0.06325 µM) of 0.141 and a relative viability ([16]; first compound 0.2 µM) of 0.0935. For the same compound, the relative viability ([17]; first compound 0.002 µM) was 0.158, the relative viability ([17]; first compound 0.006325 µM) was 0.103 and the relative viability ([17]; first compound 0.02 µM) was 0.106. It also gave a relative viability ([17]; first compound 0.06325 µM) of 0.172, a relative viability ([17]; first compound 0.2 µM) of 0.339 and a relative viability ([18]; first compound 0.002 µM) of 0.558. It also gave a relative viability ([18]; first compound 0.006325 µM) of 0.501, a relative viability ([18]; first compound 0.02 µM) of 0.518 and a relative viability ([18]; first compound 0.06325 µM) of 0.211. The relative viability ([18]; first compound 0.2 µM) was 0.208, the relative viability ([19]; first compound 0.002 µM) was 0.482 and the relative viability ([19]; first compound 0.006325 µM) was 0.493. It also gave a relative viability ([19]; first compound 0.02 µM) of 0.414, a relative viability ([19]; first compound 0.06325 µM) of 0.258 and a relative viability ([19]; first compound 0.2 µM) of 0.251. The relative viability ([20]; first compound 0.002 µM) was 0.805, the relative viability ([20]; first compound 0.006325 µM) was 0.695 and the relative viability ([20]; first compound 0.02 µM) was 0.516. The relative viability ([20]; first compound 0.06325 µM) was 0.199, the relative viability ([20]; first compound 0.2 µM) was 0.0951 and the relative viability ([21]; first compound 0.002 µM) was 0.261. The relative viability ([21]; first compound 0.006325 µM) was 0.277, the relative viability ([21]; first compound 0.02 µM) was 0.252 and the relative viability ([21]; first compound 0.06325 µM) was 0.176. For the same compound, the relative viability ([21]; first compound 0.2 µM) was 0.139, the relative viability ([22]; first compound 0.002 µM) was 0.539 and the relative viability ([22]; first compound 0.006325 µM) was 0.6. The relative viability ([22]; first compound 0.02 µM) was 0.533, the relative viability ([22]; first compound 0.06325 µM) was 0.5 and the relative viability ([22]; first compound 0.2 µM) was 0.437.
